Source: patent publication US9480253B2, “Use of 3-(2,4,6-Trimethylphenyl)-4-neopentylcarbonyloxy-5,5-tetramethylene-delta-3-dihydrofuran-2-one for controlling psyllids” (BAYER INTELLECTUAL PROPERTY GMBH, priority 2004, dated 2016)

Experiments:
Trioza erythreae = assay: Field spray test against psyllids on orange trees (Example A); type: in vivo; conditions: 144 g a.i./ha, 240 SC + 0.2% RME; for Efficacy in % Abbott 7TNAA: 540 l water per ha, 7 days after the first treatment; for Efficacy in % Abbott 7TNAB / Efficacy in % Abbott 13TNAB: two applications at interval of one week; for Efficacy in % Abbott 7TNAB: 7 days after the last treatment; for Efficacy in % Abbott 13TNAB: 13 days after the last treatment
Method: • Pest: Trioza erythreae • Plant: Orange
The compound of the formula (I) (240 SC) was tested at an application rate of 144 g a.i./ha+0.2% a.i. rapeseed oil methyl ester (RME) at 540 l water per ha in comparison with spirodiclofen application rate comparison.
Spraying was effected by means of a pneumatic knapsack sprayer.
The experiment was carried out using one tree per plot and three replications. In each case two applications were carried out at an interval of one week.
The activity against psyllids was determined by counting the number of live animals on 20 leaves per tree 7 days after the first treatment and 7 and 13 days after the last treatment. The efficacy was calculated with the aid of Abbott's formula.

Paratrioza cockerelli = assay: Field spray test against psyllids on tomato (Example B); type: in vivo; conditions: 72 g a.i./ha, 240 SC
Method: • Pest: Paratrioza cockerelli • Plant: Tomato The compound of the formula (I) (240 SC) was tested at an application rate of 72 […] water application rate of 345 l ha in comparison with Leverage (48 g a.i./ha imidacloprid+33 […]). Spraying was effected by means of a manually operated knapsack sprayer. The experiment was carried out with 10-m^2 plots and three replications. In each case two applications were carried out at an interval of one week. The activity against […] determined by counting the number of live animals on 10 leaves 7 days after the first treatment and 7 and 14 days after the second treatment. The efficacy was calculated with the aid of Abbott's formula.

[1] = tested on: insects from the family Psyllidae; assay: Control of insects from the family Psyllidae, comparison with spirodiclofen; type: in vivo
[2] = known from EP-A-0 528 156; cited from earlier work
[3] = tested on: insects from the family Aleyrodidae; conditions: known from EP-A-0 528 156; cited from earlier work
psyllids = conditions: under certain conditions; timing of application very limited (De Maeyer et al.); cited from earlier work

Compound	Efficacy in % Abbott 7TNAA (Trioza erythreae)	Efficacy in % Abbott 7TNAB (Trioza erythreae)	Efficacy in % Abbott 13TNAB (Trioza erythreae)	Efficacy in % Abbott 7TNAA (Paratrioza cockerelli; 345 l water/ha, 7 days after the first treatment)	Efficacy in % Abbott 7TNAB (Paratrioza cockerelli; two applications at interval of one week, 7 days after the second treatment)	Efficacy in % Abbott 14TNAB (Paratrioza cockerelli; two applications at interval of one week, 14 days after the second treatment)	effectiveness in controlling insects from the family Psyllidae relative to spirodiclofen [1]	acaricidal activity [2]	activity against insects from the family Aleyrodidae [3]	ovicidal activity against psyllids (psyllids)
Cc1cc(C)c(C2=C(OC(=O)CC(C)(C)C)C3(CCCC3)OC2=O)c(C)c1 [Compound of the formula (I), 3-(2,4,6-Trimethylphenyl)-4-neopentylcarbonyloxy-5,5-tetramethylene-Δ^3-dihydrofuran-2-one]	95 % Abbott	97.5 % Abbott	95.2 % Abbott	80.3 % Abbott	84.8 % Abbott	98.7 % Abbott	considerably more effective than spirodiclofen	acaricidal activity	active	–
CCC(C)(C)C(=O)OC1=C(c2ccc(Cl)cc2Cl)C(=O)OC12CCCCC2 [Spirodiclofen, reference compound]	80.3 % Abbott	91.5 % Abbott	88.1 % Abbott	–	–	–	–	–	–	ovicidal activity
